According to US20230272029A1, “CO-AGONISTS AT GLP-1 AND GIP RECEPTORS SUITABLE FOR ORAL DELIVERY” (Novo Nordisk A/S, priority 2020, published 2023):
Marks after values point to notes of the source that are not given here. Starred links: 1 amine or outer side, 2 acyl side, 3 side chain; linkers in the order of their positions; H or OH if unused. Non-standard residues stand in square brackets, D forms with d. Residues, ends and D or L forms follow the SMILES beside them. Groups on a side chain read outwards from the residue. *: point of attachment. C18 diacid = O=C(O)CCCCCCCCCCCCCCCCC(=O)*; γGlu = O=C(O)[C@H](CCC(=O)[*:2])N[*:1]; εLys = N[C@@H](CCCCN[*:1])C(=O)[*:2]; Aib = CC(C)(N)C(=O)O

Assay: Pharmacokinetic study in dogs after oral dosing of tablets with SNAC
Type: in vivo, Beagle dogs
Procedure: The purpose of this example is to determine the half-life and plasma exposure in vivo of the compounds of the present invention after p.o. administration to beagle dogs, i.e. the terminal half-life and concentration of test substance that reaches circulation with time. This is done in a pharmacokinetic (PK) study, where these parameters of the compound in question are determined. By terminal half-life is generally meant the period of time it takes to halve a certain plasma concentration, measured after the initial distribution phase.
The amount of SNAC in the tablet composition was 100-300 mg, the amount of magnesium stearate in the tablet composition was 7.7 mg, and the target amount of each test substance in the tablet composition was 3-4 mg.
Male beagle dogs, 1-7 years of age and weighing 9-17 kg during the study period, were included in the study. The dogs were dosed in a fasting state. The dogs were group housed in pens (12 hours light: 12 hours dark), and fed individually and restrictedly once daily with Royal Canin Medium Adult dog food (Royal Canin Products, China Branch, or Brogaarden A/S, Denmark). The dogs were used for repeated PK studies with a suitable wash-out period between successive dosing. An appropriate acclimatization period was given prior to initiation of the first PK study. All handling, dosing, and blood sampling of the animals were performed by trained and skilled staff. Before the studies, the dogs were fasted overnight and from 0 to 4 hours after dosing. The dogs were restricted to water 1 hour before dosing until 4 hours after dosing, but otherwise had ad libitum access to water during the whole period.
The compositions were administered by a single oral dosing to the dogs in groups of 6-8 dogs. […] The mouth was then closed, and 10 mL of tap water was given by syringe or gavage to facilitate swallowing of the tablet.
For each blood sample time point, approximately 0.8 mL of whole blood was collected in a 1.5 mL EDTA-coated tube, which was gently turned to mix the sample with EDTA. Blood samples were collected in EDTA buffer (8 mM) and then centrifuged at 4° C. and 2000g for 10 minutes. Plasma was pipetted into Micronic tubes on dry ice, and kept at −20° C. or lower until analysis. Blood samples were taken as appropriate, for example from a venflon in the cephalic vein in the front leg for the first 2 hours and then with syringe from the jugular vein for the rest of the time points. The first few drops were allowed to drain from the venflon to avoid heparin saline from the venflon in the sample.
All blood samples were collected into test tubes containing EDTA for stabilisation and kept on ice until centrifugation. Plasma was separated from whole blood by centrifugation and the plasma was stored at −20° C. or lower until analysis.
The plasma was analysed for test substance using LC-MS (Liquid Chromatography-Mass Spectrometry) as known to the person skilled in the art. […] RP-HPLC separation was achieved using a linear gradient of 1:1 acetonitrile/methanol in 1% aqueous formic acid using either: a Phenomenex Onyx Monolithic C18 column (50×2.0 mm) and a flow rate of 0.8 mL/min at 30° C.; or an Agilent Poroshell 120 SB-C18 column (50×2.1 mm, 2.7 μm) at a flow rate of 0.4 mL/min at 60° C. The mass spectrometer was operated in either positive ionization SIM mode or positive ionization PRM mode.
For each individual animal, a plasma concentration-time profile was analysed by a non-compartmental model in Pharsight Phoenix WinNonLin ver. 6.4 software or other relevant software for PK analysis, and the resulting terminal half-life (t1/2), maximum plasma concentration per dose (Cmax/D), time for maximum plasma concentration (tmax), and area under the curve to infinity per dose (AUC/D) were determined. Summary statistics of pharmacokinetic results were presented as median (for tmax), harmonic mean ([…]), or arithmetic mean (Cmax, AUC).

Row | SMILES | Cmax/Dose (dog, in vivo, po) | Cmax/Dose (oral tablet, 300 mg SNAC, 3 mg test substance, Beagle dogs, arithmetic mean) | AUC/Dose (dog, in vivo, po)
1 | CC[C@H](C)[C@H](NC(=O)[C@H](Cc1ccccc1)NC(=O)[C@H](CCC(=O)O)NC(=O)[C@H](CCC(=O)O)NC(=O)[C@H](C)NC(=O)[C@H](C)NC(=O)[C@H](CCC(N)=O)NC(=O)[C@H](CCCCNC(=O)[C@@H](N)CCCCNC(=O)[C@@H](N)CCCCNC(=O)CC[C@H](NC(=O)CCCCCCCCCCCCCCCCC(=O)O)C(=O)O)NC(=O)[C@H](CCC(=O)O)NC(=O)[C@H](CC(C)C)NC(=O)[C@H](CC(C)C)NC(=O)[C@@H](NC(=O)[C@H](CO)NC(=O)[C@H](Cc1ccc(O)cc1)NC(=O)[C@H](CC(=O)O)NC(=O)[C@H](CO)NC(=O)[C@@H](NC(=O)[C@H](Cc1ccccc1)NC(=O)[C@@H](NC(=O)CNC(=O)[C@H](CCC(=O)O)NC(=O)C(C)(C)NC(=O)[C@@H](N)Cc1ccc(O)cc1)[C@@H](C)O)[C@@H](C)O)[C@@H](C)CC)C(=O)N[C@@H](CC(N)=O)C(=O)N[C@@H](Cc1c[nH]c2ccccc12)C(=O)N[C@@H](CC(C)C)C(=O)N[C@@H](CC(C)C)C(=O)N[C@@H](C)C(=O)NCC(=O)NCC(=O)N1CCC[C@H]1C(=O)N[C@@H](CO)C(=O)N[C@@H](CO)C(=O)NCC(=O)N[C@@H](C)C(=O)N1CCC[C@H]1C(=O)N1CCC[C@H]1C(=O)N1CCC[C@H]1C(=O)N[C@@H](CO)C(=O)O [Compound No. 25] (H-Y[Aib]EGTFTSDYSILLEK([εLys-εLys-γGlu-C18 diacid])QAAEEFINWLLAGGPSSGAPPPS-OH) | 0.30 kg/L | – | –
2 | CC[C@H](C)[C@H](NC(=O)[C@H](Cc1ccccc1)NC(=O)[C@H](CCC(=O)O)NC(=O)[C@H](Cc1c[nH]cn1)NC(=O)[C@H](C)NC(=O)[C@H](C)NC(=O)[C@H](CCC(N)=O)NC(=O)[C@H](CCCCNC(=O)[C@@H](N)CCCCNC(=O)[C@@H](N)CCCCNC(=O)CC[C@H](NC(=O)CCCCCCCCCCCCCCCCC(=O)O)C(=O)O)NC(=O)[C@H](CCC(=O)O)NC(=O)[C@H](CC(C)C)NC(=O)[C@H](CC(C)C)NC(=O)[C@@H](NC(=O)[C@H](CO)NC(=O)[C@H](Cc1ccc(O)cc1)NC(=O)[C@H](CC(=O)O)NC(=O)[C@H](CO)NC(=O)[C@@H](NC(=O)[C@H](Cc1ccccc1)NC(=O)[C@@H](NC(=O)CNC(=O)[C@H](CCC(=O)O)NC(=O)C(C)(C)NC(=O)[C@@H](N)Cc1ccc(O)cc1)[C@@H](C)O)[C@@H](C)O)[C@@H](C)CC)C(=O)N[C@@H](CC(N)=O)C(=O)N[C@@H](Cc1c[nH]c2ccccc12)C(=O)N[C@@H](CC(C)C)C(=O)N[C@@H](CC(C)C)C(=O)N[C@@H](C)C(=O)NCC(=O)NCC(=O)N1CCC[C@H]1C(=O)N[C@@H](CO)C(=O)N[C@@H](CO)C(=O)NCC(=O)N[C@@H](C)C(=O)N1CCC[C@H]1C(=O)N1CCC[C@H]1C(=O)N1CCC[C@H]1C(=O)N[C@@H](CO)C(=O)O [Compound No. 26] (H-Y[Aib]EGTFTSDYSILLEK([εLys-εLys-γGlu-C18 diacid])QAAHEFINWLLAGGPSSGAPPPS-OH) | 0.49* kg/L | – | –
3 | CC[C@H](C)[C@H](NC(=O)[C@H](Cc1ccccc1)NC(=O)[C@H](CCC(=O)O)NC(=O)[C@H](CCCNC(=N)N)NC(=O)[C@H](C)NC(=O)[C@H](C)NC(=O)[C@H](CCC(N)=O)NC(=O)[C@H](CCCCNC(=O)[C@@H](N)CCCCNC(=O)[C@@H](N)CCCCNC(=O)CC[C@H](NC(=O)CCCCCCCCCCCCCCCCC(=O)O)C(=O)O)NC(=O)[C@H](CCC(=O)O)NC(=O)[C@H](CC(C)C)NC(=O)[C@H](CC(C)C)NC(=O)[C@@H](NC(=O)[C@H](CO)NC(=O)[C@H](Cc1ccc(O)cc1)NC(=O)[C@H](CC(=O)O)NC(=O)[C@H](CO)NC(=O)[C@@H](NC(=O)[C@H](Cc1ccccc1)NC(=O)[C@@H](NC(=O)CNC(=O)[C@H](CCC(=O)O)NC(=O)C(C)(C)NC(=O)[C@@H](N)Cc1ccc(O)cc1)[C@@H](C)O)[C@@H](C)O)[C@@H](C)CC)C(=O)N[C@@H](CCC(=O)O)C(=O)N[C@@H](Cc1c[nH]c2ccccc12)C(=O)N[C@@H](CC(C)C)C(=O)N[C@@H](CC(C)C)C(=O)N[C@@H](CCCNC(=N)N)C(=O)NCC(=O)NCC(=O)N1CCC[C@H]1C(=O)N[C@@H](CCC(=O)O)C(=O)N[C@@H](CO)C(=O)NCC(=O)N[C@@H](C)C(=O)N1CCC[C@H]1C(=O)N1CCC[C@H]1C(=O)N1CCC[C@H]1C(=O)N[C@@H](CO)C(=O)O [Compound No. 28] (H-Y[Aib]EGTFTSDYSILLEK([εLys-εLys-γGlu-C18 diacid])QAAREFIEWLLRGGPESGAPPPS-OH) | – | 0.36** kg/L | –
4 | CC[C@H](C)[C@H](NC(=O)[C@H](Cc1ccccc1)NC(=O)[C@H](CCC(=O)O)NC(=O)[C@H](CCC(N)=O)NC(=O)[C@H](C)NC(=O)[C@H](C)NC(=O)[C@H](CCC(N)=O)NC(=O)[C@H](CCCCNC(=O)[C@@H](N)CCCCNC(=O)[C@@H](N)CCCCNC(=O)CC[C@H](NC(=O)CCCCCCCCCCCCCCCCC(=O)O)C(=O)O)NC(=O)[C@H](CCC(=O)O)NC(=O)[C@H](CC(C)C)NC(=O)[C@H](CC(C)C)NC(=O)[C@@H](NC(=O)[C@H](CO)NC(=O)[C@H](Cc1ccc(O)cc1)NC(=O)[C@H](CC(=O)O)NC(=O)[C@H](CO)NC(=O)[C@@H](NC(=O)[C@H](Cc1ccccc1)NC(=O)[C@@H](NC(=O)CNC(=O)[C@H](CCC(=O)O)NC(=O)C(C)(C)NC(=O)[C@@H](N)Cc1ccc(O)cc1)[C@@H](C)O)[C@@H](C)O)[C@@H](C)CC)C(=O)N[C@@H](CCC(=O)O)C(=O)N[C@@H](Cc1c[nH]c2ccccc12)C(=O)N[C@@H](CC(C)C)C(=O)N[C@@H](CC(C)C)C(=O)N[C@@H](C)C(=O)NCC(=O)NCC(=O)N1CCC[C@H]1C(=O)N[C@@H](CO)C(=O)N[C@@H](CO)C(=O)NCC(=O)N[C@@H](C)C(=O)N1CCC[C@H]1C(=O)N1CCC[C@H]1C(=O)N1CCC[C@H]1C(=O)N[C@@H](CO)C(=O)O [Compound No. 29] (H-Y[Aib]EGTFTSDYSILLEK([εLys-εLys-γGlu-C18 diacid])QAAQEFIEWLLAGGPSSGAPPPS-OH) | 0.26** kg/L | – | –
5 | CC[C@H](C)[C@H](NC(=O)[C@H](Cc1ccccc1)NC(=O)[C@H](CCC(=O)O)NC(=O)[C@H](Cc1c[nH]cn1)NC(=O)[C@H](C)NC(=O)[C@H](C)NC(=O)[C@H](CCC(N)=O)NC(=O)[C@H](CCCCNC(=O)[C@@H](N)CCCCNC(=O)[C@@H](N)CCCCNC(=O)CC[C@H](NC(=O)CCCCCCCCCCCCCCCCC(=O)O)C(=O)O)NC(=O)[C@H](CCC(=O)O)NC(=O)[C@H](CC(C)C)NC(=O)[C@H](CC(C)C)NC(=O)[C@@H](NC(=O)[C@H](CO)NC(=O)[C@H](Cc1ccc(O)cc1)NC(=O)[C@H](CC(=O)O)NC(=O)[C@H](CO)NC(=O)[C@@H](NC(=O)[C@H](Cc1ccccc1)NC(=O)[C@@H](NC(=O)CNC(=O)[C@H](CCC(=O)O)NC(=O)C(C)(C)NC(=O)[C@@H](N)Cc1ccc(O)cc1)[C@@H](C)O)[C@@H](C)O)[C@@H](C)CC)C(=O)N[C@@H](CCC(=O)O)C(=O)N[C@@H](Cc1c[nH]c2ccccc12)C(=O)N[C@@H](CC(C)C)C(=O)N[C@@H](CC(C)C)C(=O)N[C@@H](C)C(=O)NCC(=O)NCC(=O)N1CCC[C@H]1C(=O)N[C@@H](CO)C(=O)N[C@@H](CO)C(=O)NCC(=O)N[C@@H](C)C(=O)N1CCC[C@H]1C(=O)N1CCC[C@H]1C(=O)N1CCC[C@H]1C(=O)N[C@@H](CO)C(=O)O [Compound No. 30] (H-Y[Aib]EGTFTSDYSILLEK([εLys-εLys-γGlu-C18 diacid])QAAHEFIEWLLAGGPSSGAPPPS-OH) | 0.24 kg/L | – | 6.5 kg·h/L
